Reference: patent US20080021055A1, “Novel cycloalkyl derivatives as inhibitors of bone resorption and vitronectin receptor antagonists” (Aventis Pharma S.A., priority 1996, published 2008)

Target: T1, vitronectin receptor αvβ3 (Homo sapiens, UniProt P05106+P06756)
T1 construct: expressed in transfected cells
Experiment: Vn/293 cell test: inhibition of the binding of 293 cells to human vitronectin
Format: cell-based
Conditions: 293 cells cotransfected with αv and β3 subunits, binding to plates coated with human vitronectin, 90 min at 37° C.
From the text: The inhibitory action of the compounds according to the invention against the vitronectin receptor […] can be determined, for example, as described below:
Test for the measurement of the inhibition of the binding of 293 cells to human vitronectin (abbreviated in the test results to Vn/293 cell test)
1. Purification of Human Vitronectin
Human vitronectin was isolated from human plasma and purified by affinity chromatography according to the method of Yatohyo et al., Cell Structure and Function, 1988, 23, 281-292.
293 cells, a human embryonic kidney cell line, which were cotransfected with DNA sequences for the αv and β3 subunits of the vitronectin receptor were selected according to the FACS method with a view to a high expression rate (>500,000 αvβ3 receptors/cell). The selected cells were cultured and sorted again by means of FACS to obtain a stable cell line (15 D) with expression rates of >1,000,000 copies of αvβ3 per cell.
A Linbro 96-well tissue culture plate with a flat bottom was coated overnight at 4° C. with human vitronectin (0.01 mg/ml, 0.05 ml/well) in phosphate-buffered saline solution (PBS) and then blocked with 0.5% strength BSA. […] The reaction was stopped with a glycine (50 mmol)/EDTA (5 mmol) buffer (pH 10.4) and the absorption of each well was measured at 405-650 nm. The data were evaluated using standard methods.

T1 sequence (P06756 31-889 limits assumed): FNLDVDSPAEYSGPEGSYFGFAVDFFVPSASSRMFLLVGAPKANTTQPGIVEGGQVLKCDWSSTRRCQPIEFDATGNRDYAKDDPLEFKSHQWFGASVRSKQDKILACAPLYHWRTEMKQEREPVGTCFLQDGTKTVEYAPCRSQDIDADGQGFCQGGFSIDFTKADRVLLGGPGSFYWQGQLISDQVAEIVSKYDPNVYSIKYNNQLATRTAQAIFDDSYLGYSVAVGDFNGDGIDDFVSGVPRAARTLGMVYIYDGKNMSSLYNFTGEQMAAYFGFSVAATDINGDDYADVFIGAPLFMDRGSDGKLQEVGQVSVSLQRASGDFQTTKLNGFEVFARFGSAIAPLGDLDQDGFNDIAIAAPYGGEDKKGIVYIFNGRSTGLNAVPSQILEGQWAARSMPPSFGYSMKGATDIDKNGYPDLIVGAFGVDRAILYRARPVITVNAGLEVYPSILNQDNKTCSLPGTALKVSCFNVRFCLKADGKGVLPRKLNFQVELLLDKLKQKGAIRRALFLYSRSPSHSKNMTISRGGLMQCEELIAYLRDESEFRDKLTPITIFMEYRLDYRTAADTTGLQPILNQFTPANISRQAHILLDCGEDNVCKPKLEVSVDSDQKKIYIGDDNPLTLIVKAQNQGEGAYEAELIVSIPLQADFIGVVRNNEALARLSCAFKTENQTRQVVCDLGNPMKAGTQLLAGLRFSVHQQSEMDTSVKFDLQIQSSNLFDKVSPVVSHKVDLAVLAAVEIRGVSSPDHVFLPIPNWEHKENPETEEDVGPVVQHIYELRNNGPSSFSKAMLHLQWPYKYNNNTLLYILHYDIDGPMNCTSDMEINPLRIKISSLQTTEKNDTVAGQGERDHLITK
T1 sequence (P06756 891-1048 limits assumed): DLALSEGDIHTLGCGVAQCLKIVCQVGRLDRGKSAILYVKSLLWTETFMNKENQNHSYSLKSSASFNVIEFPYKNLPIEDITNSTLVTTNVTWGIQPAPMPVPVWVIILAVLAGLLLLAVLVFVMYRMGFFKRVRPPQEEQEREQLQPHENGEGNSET
T1 sequence (P05106 27-788): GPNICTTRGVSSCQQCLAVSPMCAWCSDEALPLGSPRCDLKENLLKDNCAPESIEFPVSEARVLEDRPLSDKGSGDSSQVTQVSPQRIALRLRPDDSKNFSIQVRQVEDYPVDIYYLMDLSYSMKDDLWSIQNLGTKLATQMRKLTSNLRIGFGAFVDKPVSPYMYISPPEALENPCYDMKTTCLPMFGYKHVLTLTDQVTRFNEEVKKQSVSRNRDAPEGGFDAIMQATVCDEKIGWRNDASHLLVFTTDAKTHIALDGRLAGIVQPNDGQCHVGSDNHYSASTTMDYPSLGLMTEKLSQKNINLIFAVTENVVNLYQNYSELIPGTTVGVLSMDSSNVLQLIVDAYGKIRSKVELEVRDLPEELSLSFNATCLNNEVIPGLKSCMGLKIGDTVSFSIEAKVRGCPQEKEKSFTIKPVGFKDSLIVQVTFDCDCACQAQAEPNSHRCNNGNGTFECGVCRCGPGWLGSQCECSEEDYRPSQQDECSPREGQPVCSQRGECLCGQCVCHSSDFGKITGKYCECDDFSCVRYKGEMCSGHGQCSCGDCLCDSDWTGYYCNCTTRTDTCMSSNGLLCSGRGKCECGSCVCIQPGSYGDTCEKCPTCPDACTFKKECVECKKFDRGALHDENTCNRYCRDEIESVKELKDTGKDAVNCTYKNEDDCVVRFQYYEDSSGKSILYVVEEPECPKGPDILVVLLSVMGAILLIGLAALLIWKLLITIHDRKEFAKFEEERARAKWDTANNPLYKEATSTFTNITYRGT

Row | IC50 [µM] | Structure (SMILES)
1 | 0.032 | N=C(N)NC(=O)CCCOc1ccc(C[C@H](NC(=O)OCC23CC4CC(CC(C4)C2)C3)C(=O)O)cc1 [Example 1, (2S)-2-(1-Adamantylmethyloxycarbonylamino)-3-(4-(3-guanidinocarbonylpropyloxy)phenyl)propionic acid]
2 | 0.032 | O=C(CCc1ccc(C(=O)NC[C@H](NC(=O)OCC23CC4CC(CC(C4)C2)C3)C(=O)O)cc1)NC1=NCCCN1 [Example 3, (2S)-2-(1-Adamantylmethyloxycarbonylamino)-3-(4-(2-(1,4,5,6-tetra-hydropyrimidin-2-ylcarbamoyl)ethyl)benzoylamino)propionic acid]
